{
  "source": "patent US20040018193A1",
  "about": "(priority 2002, published 2004)",
  "molecules": {"B1": {"name": "IFN-γ: cytokine interferon-gamma (protein, UniProt P01579 24-161, looked up)", "Interferon gamma": "QDPYVKEAENLKKYFNAGHSDVADNGTLFLGILKNWKEESDRKIMQSQIVSFYFKLFKNFKDDQSIQKSVETIKEDMNVKFFNSNKKKRDDFEKLTNYSVTDLNVQRKAIHELIQVMAELSPAAKTGKRKRSQMLFRG"}},
  "key": {"VEE virus [1]": {"tested_on": "VEE virus", "design": "species or system mice", "details": "mouse, in vivo"}, "Colon-26 cells": {"tested_on": "Colon-26 cells", "design": "species or system Balb/c mice", "details": "mouse, in vivo"}, "VEE virus [2]": {"tested_on": "VEE virus", "design": "species or system mice", "details": "mouse, in vivo", "remark": "listed apart in the source"}, "human neutrophils [3]": {"tested_on": "human neutrophils", "assay_type": "cell-based", "details": "cytokine-treated neutrophils; donor-dependent; FIGS. 10 and 11"}, "B. anthracis (Sterne)": {"tested_on": "B. anthracis (Sterne)", "design": "species or system A/J mice", "details": "mouse, in vivo; for mice still alive: ip"}, "[4]": {"tested_on": "Vaccinia virus (strain WR)", "design": "species or system Balb/C mice", "details": "mouse, in vivo"}, "[5]": {"tested_on": "Bacillus anthracis Sterne strain", "design": "species or system DBA/2 mice", "details": "mouse, in vivo"}, "[6]": {"tested_on": "primary murine splenocytes", "design": "species or system Balb/c mice", "details": "mouse, in vivo"}, "human neutrophils [7]": {"tested_on": "human neutrophils", "assay_type": "cell-based", "details": "for IL-8 production by neutrophils: cytokine-stimulated, FIG. 12"}, "vaccinia virus [8]": {"tested_on": "vaccinia virus", "assay_type": "cell-based"}, "[9]": {"tested_on": "murine macrophages (RAW 264.7)", "assay_type": "cell-based"}, "[10]": {"tested_on": "murine peritoneal exudate cells", "design": "species or system Balb/c mice", "details": "mouse, in vivo"}, "murine PECs": {"tested_on": "murine PECs", "assay_type": "cell-based, BALB/c mice"}, "vaccinia virus [11]": {"tested_on": "vaccinia virus", "assay_type": "in vivo"}},
  "data": [
    {"molecule": "IL-12: cytokine", "values": [
      {"measurement": "survival of lethally VEE-infected mice", "setting": "VEE virus [1]", "value": "increased survival, but not significantly"},
      {"measurement": "cytolysis by NK/NKT cells", "setting": "Colon-26 cells", "value": "significant increases"},
      {"measurement": "reduction of VEE titers in the lungs compared to control animals", "setting": "VEE virus [2]", "value": "~1.5", "unit": "log10"},
      {"measurement": "superoxide anion levels", "setting": "human neutrophils [3]", "value": "increased superoxide anion levels"},
      {"measurement": "survival", "setting": "B. anthracis (Sterne)", "value": "increased survival"}
    ]},
    {"molecule": "IFN-α", "values": [
      {"measurement": "mice remained alive", "setting": "[4]", "value": 95, "unit": "%"},
      {"measurement": "mice still alive", "setting": "[4]", "value": 95, "unit": "%"}
    ]},
    {"molecule": "O=C(O)c1cn(C2CC2)c2cc(N3CCNCC3)c(F)cc2c1=O", "note": "[ciprofloxacin]", "values": [
      {"measurement": "survival", "setting": "[5]", "value": 40, "unit": "%"}
    ]},
    {"molecule": "IL-8: cytokine", "values": [
      {"measurement": "superoxide anion levels", "setting": "human neutrophils [3]", "value": "increased superoxide anion levels"}
    ]},
    {"molecule": "GM-CSF", "values": [
      {"measurement": "CD25 marker expression", "setting": "[6]", "value": "significant activation"},
      {"measurement": "superoxide anion levels", "setting": "human neutrophils [3]", "value": "increased superoxide anion levels"},
      {"measurement": "IL-8 production by neutrophils", "setting": "human neutrophils [7]", "value": "significantly increased"},
      {"measurement": "survival", "setting": "B. anthracis (Sterne)", "value": "increased survival"},
      {"measurement": "mice still alive", "setting": "B. anthracis (Sterne)", "value": 25, "unit": "%"}
    ]},
    {"molecule": "platelet activating factor [PAF]", "values": [
      {"measurement": "GM-CSF-induced IL-8 production", "setting": "human neutrophils [7]; PAF added to GM-CSF, FIG. 13", "value": "enhances"},
      {"measurement": "IL-8 production by neutrophils", "setting": "human neutrophils [7]", "value": "increased IL-8 production moderately"}
    ]},
    {"molecule": "CC(=O)O.CNC(=N)NCCC[C@H](N)C(=O)O", "note": "[L-NMA, N^G-monomethyl-L-arginine acetate, reference compound]", "values": [
      {"measurement": "VV replication", "setting": "vaccinia virus [8]", "value": "restored VV replication"},
      {"measurement": "NO production", "setting": "[9]", "value": "inhibit NO production"}
    ]},
    {"molecule": "B1", "values": [
      {"measurement": "survival of lethally VEE-infected mice", "setting": "VEE virus [1]", "value": "increased survival"},
      {"measurement": "effect of cytokine on cell wall-enhanced vaccinia virus clearance", "setting": "vaccinia virus [8]", "value": "possible weak synergetic effect"},
      {"measurement": "plaque forming units relative to cell wall treatment", "setting": "vaccinia virus [8]", "value": "reduced the number of plaque forming units even further"},
      {"measurement": "reduction in VV titer", "setting": "vaccinia virus [8]", "value": 95, "unit": "%"},
      {"measurement": "nitric oxide production", "setting": "[9]", "value": "increased nitric oxide production dramatically"},
      {"measurement": "nitric oxide production by PECs", "setting": "[10]", "value": "significant increases"},
      {"measurement": "increase of cell wall-induced nitric oxide production", "setting": "murine PECs", "value": "10 to 20", "unit": "µM"},
      {"measurement": "cytolysis by NK/NKT cells", "setting": "Colon-26 cells", "value": "moderate increases"},
      {"measurement": "reduction of VEE titers in the lungs compared to control animals", "setting": "VEE virus [2]", "value": "~0.5", "unit": "log10"},
      {"measurement": "mice remained alive", "setting": "[4]", "value": 100, "unit": "%"},
      {"measurement": "mice still alive", "setting": "[4]", "value": 100, "unit": "%"},
      {"measurement": "protection against lethal VV (strain WR) challenge", "setting": "[4]", "value": "complete protection"},
      {"measurement": "superoxide anion levels", "setting": "human neutrophils [3]", "value": "increased superoxide anion levels"},
      {"measurement": "vaccinia virus-induced cytopathic effect", "setting": "vaccinia virus [11]", "value": "appeared to be reduced"},
      {"measurement": "survival", "setting": "B. anthracis (Sterne)", "value": "increased survival"},
      {"measurement": "mice still alive", "setting": "B. anthracis (Sterne)", "value": 10, "unit": "%"}
    ]}
  ]
}
